{
  "source": "ChEMBL document CHEMBL1201862",
  "about": "“PubChem BioAssay data set” (2004)",
  "test_in_all_cases": "growth of human tumour cells (NCI), 48 h",
  "key": {"786-0": {"system": "786-0"}, "A498": {"system": "A498"}, "A549": {"system": "A549"}, "ACHN": {"system": "ACHN"}, "BT-549": {"system": "BT-549"}, "CAKI-1": {"system": "CAKI-1"}, "CCRF-CEM": {"system": "CCRF-CEM"}, "COLO 205": {"system": "COLO 205"}, "DU-145": {"system": "DU-145"}, "EKVX": {"system": "EKVX"}, "HCT-116": {"system": "HCT-116"}, "HCT-15": {"system": "HCT-15"}, "HL-60": {"system": "HL-60"}, "HOP-62": {"system": "HOP-62"}, "HOP-92": {"system": "HOP-92"}, "HT-29": {"system": "HT-29"}, "Hs-578T": {"system": "Hs-578T"}, "IGROV-1": {"system": "IGROV-1"}, "K562": {"system": "K562"}, "KM12": {"system": "KM12"}, "LOX IMVI": {"system": "LOX IMVI"}, "M14": {"system": "M14"}, "MCF7": {"system": "MCF7"}, "MDA-MB-231": {"system": "MDA-MB-231"}, "MDA-MB-435": {"system": "MDA-MB-435"}, "MDA-N": {"system": "MDA-N"}, "MOLT-4": {"system": "MOLT-4"}, "Malme-3M": {"system": "Malme-3M"}, "NCI-H226": {"system": "NCI-H226"}, "NCI-H23": {"system": "NCI-H23"}, "NCI-H460": {"system": "NCI-H460"}, "NCI-H522": {"system": "NCI-H522"}, "NCI/ADR-RES": {"system": "NCI/ADR-RES"}, "OVCAR-3": {"system": "OVCAR-3"}, "OVCAR-4": {"system": "OVCAR-4"}, "OVCAR-5": {"system": "OVCAR-5"}, "OVCAR-8": {"system": "OVCAR-8"}, "PC-3": {"system": "PC-3"}, "RPMI-8226": {"system": "RPMI-8226"}, "RXF 393": {"system": "RXF 393"}, "SF-268": {"system": "SF-268"}, "SF-295": {"system": "SF-295"}, "SF-539": {"system": "SF-539"}, "SK-MEL-28": {"system": "SK-MEL-28"}, "SK-MEL-2": {"system": "SK-MEL-2"}, "SK-MEL-5": {"system": "SK-MEL-5"}, "SK-OV-3": {"system": "SK-OV-3"}, "SN12C": {"system": "SN12C"}, "SNB-19": {"system": "SNB-19"}, "SNB-75": {"system": "SNB-75"}, "SR": {"system": "SR"}, "SW-620": {"system": "SW-620"}, "T47D": {"system": "T47D"}, "TK-10": {"system": "TK-10"}, "U-251": {"system": "U-251"}, "UACC-257": {"system": "UACC-257"}, "UACC-62": {"system": "UACC-62"}, "UO-31": {"system": "UO-31"}},
  "note": "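1) Cells in 96-well plates. 2) Compound, 48 h, 5 concentrations. 3) Linear interpolation between surrounding doses. 4) Unreached endpoint = highest concentration. At the GI50, growth is halved.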 Calls of active or inactive are those of the source. Rule as the data show it: active = GI50 up to about 1.1 µM and inactive = higher.",
  "data": [
    {"smiles": "Nc1ncnc2c1ncn2C1OC(C(=O)OCCO)C(O)C1O", "note": "(stereo not drawn)", "values": [
      {"measurement": "GI50", "setting": "786-0", "value": "> 100 µM (inactive)"},
      {"measurement": "GI50", "setting": "A498", "value": "> 100 µM (inactive)"},
      {"measurement": "GI50", "setting": "A549", "value": "> 100 µM (inactive)"},
      {"measurement": "GI50", "setting": "ACHN", "value": "> 100 µM (inactive)"},
      {"measurement": "GI50", "setting": "BT-549", "value": "> 100 µM (inactive)"},
      {"measurement": "GI50", "setting": "CAKI-1", "value": "> 100 µM (inactive)"},
      {"measurement": "GI50", "setting": "CCRF-CEM", "value": "> 100 µM (inactive)"},
      {"measurement": "GI50", "setting": "COLO 205", "value": "> 100 µM (inactive)"},
      {"measurement": "GI50", "setting": "DU-145", "value": "> 100 µM (inactive)"},
      {"measurement": "GI50", "setting": "EKVX", "value": "> 100 µM (inactive)"},
      {"measurement": "GI50", "setting": "HCT-116", "value": "> 100 µM (inactive)"},
      {"measurement": "GI50", "setting": "HCT-15", "value": "> 100", "unit": "µM"},
      {"measurement": "GI50", "setting": "HL-60", "value": "> 100 µM (inactive)"},
      {"measurement": "GI50", "setting": "HOP-62", "value": "> 100 µM (inactive)"},
      {"measurement": "GI50", "setting": "HOP-92", "value": "> 100 µM (inactive)"},
      {"measurement": "GI50", "setting": "HT-29", "value": "> 100 µM (inactive)"},
      {"measurement": "GI50", "setting": "Hs-578T", "value": "> 100 µM (inactive)"},
      {"measurement": "GI50", "setting": "IGROV-1", "value": "> 100 µM (inactive)"},
      {"measurement": "GI50", "setting": "K562", "value": "> 100 µM (inactive)"},
      {"measurement": "GI50", "setting": "KM12", "value": "> 100 µM (inactive)"},
      {"measurement": "GI50", "setting": "LOX IMVI", "value": "> 100 µM (inactive)"},
      {"measurement": "GI50", "setting": "M14", "value": "> 100 µM (inactive)"},
      {"measurement": "GI50", "setting": "MCF7", "value": "> 100 µM (inactive)"},
      {"measurement": "GI50", "setting": "MDA-MB-231", "value": "> 100 µM (inactive)"},
      {"measurement": "GI50", "setting": "MDA-MB-435", "value": "> 100 µM (inactive)"},
      {"measurement": "GI50", "setting": "MDA-N", "value": "> 100 µM (inactive)"},
      {"measurement": "GI50", "setting": "MOLT-4", "value": "> 100 µM (inactive)"},
      {"measurement": "GI50", "setting": "Malme-3M", "value": "> 100 µM (inactive)"},
      {"measurement": "GI50", "setting": "NCI-H226", "value": "> 100 µM (inactive)"},
      {"measurement": "GI50", "setting": "NCI-H23", "value": "> 100 µM (inactive)"},
      {"measurement": "GI50", "setting": "NCI-H460", "value": "> 100 µM (inactive)"},
      {"measurement": "GI50", "setting": "NCI-H522", "value": "> 100 µM (inactive)"},
      {"measurement": "GI50", "setting": "NCI/ADR-RES", "value": "> 100 µM (inactive)"},
      {"measurement": "GI50", "setting": "OVCAR-3", "value": "> 100 µM (inactive)"},
      {"measurement": "GI50", "setting": "OVCAR-4", "value": "> 100 µM (inactive)"},
      {"measurement": "GI50", "setting": "OVCAR-5", "value": "> 100 µM (inactive)"},
      {"measurement": "GI50", "setting": "OVCAR-8", "value": "> 100 µM (inactive)"},
      {"measurement": "GI50", "setting": "PC-3", "value": "> 100 µM (inactive)"},
      {"measurement": "GI50", "setting": "RPMI-8226", "value": "> 100 µM (inactive)"},
      {"measurement": "GI50", "setting": "RXF 393", "value": "> 100 µM (inactive)"},
      {"measurement": "GI50", "setting": "SF-268", "value": "> 100 µM (inactive)"},
      {"measurement": "GI50", "setting": "SF-295", "value": "> 100 µM (inactive)"},
      {"measurement": "GI50", "setting": "SF-539", "value": "> 100 µM (inactive)"},
      {"measurement": "GI50", "setting": "SK-MEL-28", "value": "> 100 µM (inactive)"},
      {"measurement": "GI50", "setting": "SK-MEL-2", "value": "> 100 µM (inactive)"},
      {"measurement": "GI50", "setting": "SK-MEL-5", "value": "> 100 µM (inactive)"},
      {"measurement": "GI50", "setting": "SK-OV-3", "value": "> 100 µM (inactive)"},
      {"measurement": "GI50", "setting": "SN12C", "value": "> 100 µM (inactive)"},
      {"measurement": "GI50", "setting": "SNB-19", "value": "> 100 µM (inactive)"},
      {"measurement": "GI50", "setting": "SNB-75", "value": "> 100 µM (inactive)"},
      {"measurement": "GI50", "setting": "SR", "value": "> 100 µM (inactive)"},
      {"measurement": "GI50", "setting": "SW-620", "value": "> 100 µM (inactive)"},
      {"measurement": "GI50", "setting": "T47D", "value": "> 100 µM (inactive)"},
      {"measurement": "GI50", "setting": "TK-10", "value": "> 100 µM (inactive)"},
      {"measurement": "GI50", "setting": "U-251", "value": "> 100 µM (inactive)"},
      {"measurement": "GI50", "setting": "UACC-257", "value": "> 100 µM (inactive)"},
      {"measurement": "GI50", "setting": "UACC-62", "value": "> 100 µM (inactive)"},
      {"measurement": "GI50", "setting": "UO-31", "value": "> 100 µM (inactive)"}
    ]}
  ]
}
